Among the data in ChEMBL document CHEMBL4725230, “Syntheses and pharmacokinetic evaluations of four metabolites of 2-(4-(2-((1H-benzo[d]imidazol-2-yl)thio)ethyl)piperazin-1-yl)-N-(6-methyl-2,4-bis-(methylthio)pyridin-3-yl)acetamide hydrochloride [K-604], an acyl-CoA:cholesterol O-acyltransferase-1 inhibitor” (Bioorg Med Chem, 2020) are Retention_time values, retold here.

The nature of the data set: Retention time of the compound in human liver microsomes after 5 mins in presence of NADPH by LC-MS/MS analysis. The class given is ADME, Microsome. (Microsomes from liver hold many membrane-bound enzymes, among them those of drug oxidation.)

As to `CSc1cc(C)nc([S+](C)[O-])c1NC(=O)CN1CCN(CCSc2nc3ccccc3[nH]2)CC1` (configuration not stated), the Retention_time worked out at 2.73 min.

Regarding `CSc1nc(C)cc([S+](C)[O-])c1NC(=O)CN1CCN(CCSc2nc3ccccc3[nH]2)CC1` (configuration not stated), the Retention_time was found to be 3.37 min.
